Structures are written as SMILES.

The test system of one data set is IL-12. The data set is described as follows: Cytokine production in supernatant of infected macrophages (ELISA), IL-12. The format is cell-based, murine. The note with it: supernatant of RAW 264.7 macrophages infected with L. (V.) braziliensis. The text has this: (§1) To assess the production of cytokines TNF-α and IL-12 (associated with Th1 response), as well as IL-10 and IL-6 (associated with Th2 response), in the supernatants of the macrophage infection assay, the sandwich enzyme-linked immunosorbent assay (ELISA) method was employed, following the manufacturer’s instructions (eBioscience^TM, San Diego, CA, USA). Initially, capture antibodies specific to TNF-α, IL-6, IL-10, and IL-12 were sensitized in ELISA plates (NUNC-ImmunoTM, Sigma-Aldrich, St. Louis, MO, USA). The plates were incubated at 4 °C for 18 h. After the incubation period, all wells were washed with a solution containing 0.05% PBS and Tween 20 (Sigma-Aldrich, St. Louis, MO, USA). A blocking solution containing 10% FBS in PBS was added to the wells and incubated for 1 h. Subsequently, the wells were washed again. The supernatant obtained from the macrophage infection assay was added to the respective wells. Known concentrations of recombinant cytokines (TNF-α, IL-10, IL-6, and IL-12) were also added to the plate in parallel, covering a range from high to low concentrations. The plates were maintained at 4 °C for another 18 h. […] The absorbance was measured in a plate reader at a wavelength of 450 nm. The concentration of cytokines (TNF-α, IL-10, IL-6, and IL-12) in the supernatants was determined by interpolation from the standard curve.
(In an ELISA, binding on a coated surface is turned into a signal by an enzyme label.)

The test system of a further data set is IL-10. The data set is described as follows: Cytokine production in supernatant of infected macrophages (ELISA), IL-10. It is filed as cell-based, murine. The conditions noted are these: supernatant of RAW 264.7 macrophages infected with L. (V.) braziliensis.
Description: as §1

Data set [1] is described as follows: Cell toxicity, MTT-based EZ4U assay, A549. The conditions noted are these: human, A549 cells (alveolar basal epithelial adenocarcinoma), 72 h; for viability at 72 h, 2.34 µmol/L: A549, 2.34 µmol/L; for viability at 72 h, 4.6875 µmol/L: A549, 4.6875 µmol/L; for viability at 72 h, 9.375 µmol/L: A549, 9.375 µmol/L; for viability at 72 h, 18.75 µmol/L: A549, 18.75 µmol/L; for viability at 72 h, 37.5 µmol/L: A549, 37.5 µmol/L; for viability at 72 h, 75 µmol/L: A549, 75 µmol/L; for viability at 72 h, 150 µmol/L: A549, 150 µmol/L; for viability at 72 h, 300 µmol/L: A549, 300 µmol/L; for viability at 72 h, 600 µmol/L: A549, 600 µmol/L. Also on record: species or system human. As to the method: In this study, we utilized the RAW 264.7 macrophages line (obtained from ATCC: code TIB-71™),human embryonic kidney cell line HEK-293 (obtained from ATCC: code CRL-1573™)and two human cancer cell cultures: the colon carcinoma cell line CaCo-2 and the adenocarcinomic human alveolar basal epithelial cell A549 (also obtained from ATCC: codesHTB-37™ and CCL-185™).These cell lines were cultured in Dulbecco’s modified Eagle medium (DMEM) from Gibco by Life Technologies (LifeTech Austria, Vienna, Austria). The growth medium was supplemented with 5% fetal bovine serum (FBS) from Gibco by Life Technologies and 1% penicillin-streptomycin obtained from Sigma-Aldrich (Vienna, Austria). The cells were maintained at 37 °C with 5% CO2 in a humidified incubator, and regular checks for mycoplasma contamination were carried out.
For experimental purposes, the cells were seeded into 96-well plates at a density of 2 × 10^4 cells/mL, with each well containing 100 µL of the cell suspension. The cells were allowed to adhere for 24 h. […] The stock solutions of these compounds were prepared in water with 10% (v/v) dimethyl sulfoxide (DMSO) and stored at 4 °C.
To assess cell viability after 72 h of exposure to the compounds, we employed a 3-(4,5-dimethylthiazol-2-yl)-2,5-diphenyltetrazolium bromide (MTT)-based vitality assay kit (EZ4U, Biomedica, Vienna, Austria). Briefly, we added 20 µL of the EZ4U assay solution to each well and incubated the plates in the dark for 2 h. Subsequently, we measured the absorbance using a microplate reader at 450 nm, with 620 nm as a reference to reduce unspecific background values. For reliability, all experiments were conducted three times with triplicate samples.

Data set [2] has as its system L. (L.) amazonensis promastigotes. Further details: method as in PMID 30913526. The note with it: read-out: IC50 antipromastigote activity; cited from earlier work.
The test system of another data set is pulmonary artery. The data set can be described thus: Vasodilator effect on pulmonary artery rings (KCl contraction). The conditions noted are these: guinea pig pulmonary artery rings. Here is the method: Guinea pigs of either sex weighing between 250 or 380 g were utilized in this study. The animals were housed in a controlled environment in an air-conditioned room, maintaining a temperature of 22 to 24 °C and a relative humidity of 50% to 60%. A 12 h light–dark cycle was maintained.
On the day of the experiments, the animals were euthanized via cervical dislocation. The heart, aorta, pulmonary artery, and ileum were surgically removed and immersed in Krebs–Henseleit solution, with the following composition: NaCl 144.9 mM, KCl 4.73 mM, CaCl2 3.2 mM, MgSO4 1.18 mM, NaHCO3 24.9 mM, KH2PO4 1.18 mM, and glucose 10 mM, with the pH maintained at 7.2–7.4. This solution was continuously aerated with a mixture of 95% O2 and 5% CO2.
Papillary muscles were isolated from the right ventricle of the heart and meticulously cleared of Purkinje fibers to prevent spontaneous activity. To ensure adequate oxygen supply, only muscles with a diameter less than 0.87 mm were used. The right atrium was also dissected for assessment of chronotropic activity. Both the aorta and pulmonary artery were cleaned and cut into 5 mm rings, while the ileum was sectioned into pieces measuring 1 to 2 cm.
One end of the dissected tissues was securely tied with silver wire for attachment to a tissue holder, while the other end was connected to a force transducer (Transbridge™, 4-Channel Transducer Amplifier, World Precision Instruments, Sarasota, FL, USA). For contractile measurements, the terminal ileum was stimulated with 60 mM KCl, and the pulmonary artery and aorta rings were exposed to a 90 mM KCl solution. […]
Following a 30 min control period, different concentrations of test compounds were cumulatively added to the bath solution every 45 min until a stable effect was achieved. The responses were recorded using a chart recorder (BD 112 Dual Channel, Kipp &Zonen, PO Box 507, 2624 BC, Delft, Holland) for subsequent evaluation. […]

Data set [3] concerns Leishmania (Leishmania) amazonensis. Also on record: method as in PMID 36551331. The note with it: BALB/c-L. (L.) amazonensis, 0.13 mg/kg/day; cited from earlier work.

In the case of `O=C(/N=C(/NCc1ccccc1)Nc1ccc([N+](=O)[O-])cc1)c1ccccc1` [LQOF-G1, (Z)-N-benzoyl-N-benzyl-N-(4-nitrophenyl)guanidine], the IL-12 level entry in the data set on IL-12 was “increased”. The IL-10 level entry in the data set with IL-10 was “decreased”. Moreover, in data set [1], the viability at 72 h, 2.34 µmol/L is 114 ± 7%; the viability at 72 h, 4.6875 µmol/L came to 97 ± 10.7%; the viability at 72 h, 9.375 µmol/L turned out to be 103 ± 8.8%; the viability at 72 h, 18.75 µmol/L came to 103 ± 5.7%. In data set [1], the viability at 72 h, 37.5 µmol/L was 101 ± 8.3%; the viability at 72 h, 75 µmol/L was 92 ± 9.3%; the viability at 72 h, 150 µmol/L was determined as 100 ± 6.5%; the viability at 72 h, 300 µmol/L was found to be 110 ± 7.2%. Moreover, the viability at 72 h, 600 µmol/L in data set [1] turned out to be 90 ± 8.3%. In data set [2], the IC50 is 11.5 µM.
For the molecule `O=C(/N=C(/NCc1ccccc1)Nc1ccc(Br)cc1)c1ccccc1` [LQOF-G2, (Z)-N-benzoyl-N-benzyl-N-(4-bromophenyl)guanidine], the IL-10 level result in the data set on IL-10 is “decreased”. The molecule further showed an EC50 in the data set on pulmonary artery (Cavia porcellus) of 48 µM. Further, the “arteria pulmonalis ring contraction force” value in the data set on pulmonary artery is given as “decrease”. In data set [1], the viability at 72 h, 2.34 µmol/L was 106 ± 6.3%; the viability at 72 h, 4.6875 µmol/L was determined as 109 ± 5.5%; the viability at 72 h, 9.375 µmol/L was found to be 102 ± 10.5%; the viability at 72 h, 18.75 µmol/L turned out to be 89 ± 5.7%. In data set [1], the viability at 72 h, 37.5 µmol/L is 99 ± 5.2%; the viability at 72 h, 75 µmol/L came to 96 ± 7.7%; the viability at 72 h, 150 µmol/L is 109 ± 4.3%; the viability at 72 h, 300 µmol/L is 111 ± 9.3%. Moreover, the viability at 72 h, 600 µmol/L in data set [1] came out at 110 ± 7.9%. In data set [2], the IC50 is 19.6 µM. The “reduction in the parasite load” value in data set [3] was 46%.
In the case of `CC(C)(C)c1ccc(N/C(=N\C(=O)c2ccccc2)NCc2ccccc2)cc1` [LQOF-G6, (Z)-N-benzoyl-N-benzyl-N-(4-tert-butylphenyl)guanidine], the half-maximal inhibitory concentration (IC50) in data set [2] was 25.9 µM.
Take `O=C(/N=C(/NCc1ccccc1)Nc1ccc(I)cc1)c1ccccc1` [LQOF-G7, (Z)-N-benzoyl-N-benzyl-N-(4-iodophenyl)guanidine]: the IC50 in data set [2] is 15.9 µM.
Turning to `O=C(/N=C(/NCc1ccc(Cl)cc1Cl)Nc1ccc(Br)cc1)c1ccccc1` [LQOF-G32, (Z)-N-benzoyl-N-(2,4-di-chlorobenzyl)-N-(4-bromophenyl)guanidine], in data set [1], the viability at 72 h, 2.34 µmol/L was determined as 109 ± 9.7%; the viability at 72 h, 4.6875 µmol/L came to 157 ± 10.6%; the viability at 72 h, 9.375 µmol/L stood at 165 ± 8.1%; the viability at 72 h, 18.75 µmol/L amounted to 121 ± 3.6%. In data set [1], the viability at 72 h, 37.5 µmol/L was determined as 118 ± 9.9%; the viability at 72 h, 75 µmol/L was 115 ± 17.5%; the viability at 72 h, 150 µmol/L stood at 111 ± 15.5%; the viability at 72 h, 300 µmol/L was determined as 106 ± 13.8%. The viability at 72 h, 600 µmol/L in data set [1] stood at 95 ± 10.4%.

In general, viability refers to a read-out of living cells in per cent, often relative to untreated cells. By IC50 is commonly meant the concentration that gives 50% inhibition. Usually EC50 stands for the concentration giving half of the maximal effect. A higher EC50 goes with a need for much substance.
